Experimental data as given in PubChem BioAssay (NCI).
Values joined by “and” are separate entries in the source; they are usually repeats but may differ in a detail not shown here. Equal values may be shown once.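 How tested: cells in 96-well plates exposed to compound for 48 hours at five concentrations. GI50 = concentration required for 50% inhibition of growth. The concentration for full growth arrest is given as TGI.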

Columns and labels:
Experiment in all cases: NCI tumour cell line growth inhibition, 48 h
RXF 393 renal = tested on: RXF 393 renal
OVCAR-5 ovarian = tested on: OVCAR-5 ovarian
MDA-MB-435 = tested on: MDA-MB-435
SK-MEL-28 melanoma = tested on: SK-MEL-28 melanoma
SNB-19 CNS = tested on: SNB-19 CNS
SNB-75 CNS = tested on: SNB-75 CNS
TK-10 renal = tested on: TK-10 renal
UACC-62 melanoma = tested on: UACC-62 melanoma
PC-3 prostate = tested on: PC-3 prostate
RPMI-8226 leukemia = tested on: RPMI-8226 leukemia
NCI-H522 lung = tested on: NCI-H522 lung

Compound | TGI (RXF 393 renal) [µM] | TGI (OVCAR-5 ovarian) | TGI (MDA-MB-435) [µM] | TGI (SK-MEL-28 melanoma) | TGI (SNB-19 CNS) | TGI (SNB-75 CNS) [µM] | TGI (TK-10 renal) | TGI (UACC-62 melanoma) [µM] | TGI (PC-3 prostate) | TGI (RPMI-8226 leukemia) [µM] | TGI (NCI-H522 lung) [µM] | GI50 (RPMI-8226 leukemia) [µM]
CC(=O)N1c2cc(N=NN(C)C)ccc2NC(=O)CC1C (configuration not stated) | > 100 | > 100 µM | > 100 | > 100 µM | > 100 µM | > 100 | > 100 µM | > 100 | > 100 µM | > 100 | > 100 | 
COc1ccc(C23OCC(Cc4cc(OC)c(OC)cc42)C3CO)cc1OC (configuration not stated) | > 100 | > 100 µM | > 100 | > 100 µM | > 100 µM | > 100 | > 100 µM | > 100 | > 100 µM | > 100 | > 100 | 
c1ccc(-c2c(-c3[nH]c4ccccc4c3-c3ccccc3)[nH]c3ccccc23)cc1 | 3.72 | 23.4 µM | 14.9 | 25.7 µM | 19.3 µM | 14.9 | 22.4 µM | 21.6 | 10.6 µM | 11.9 | 14.6 | 
C=CCOC(=O)N1c2ccc(O)cc2[C@@]23O[C@@]24[C@@H]1C#C/C=C\C#C[C@]3(O)C(=O)C[C@@H]4C | > 100 | > 100 µM | > 100 | > 100 µM | > 100 µM | > 100 | > 100 µM | > 100 | > 100 µM | > 100 | > 100 | 
CCCCCCCCCCCCC1N=C(N)NC2(CCCO2)C1C(=O)OC (configuration not stated) | 6.12 | 22.1 µM | 15.6 | 21.6 µM | 9.92 µM | 7.99 | 15.5 µM | 14.8 | 8.57 µM | 5.53 | 9.7 | 
CCC(=C/[C@H](C)C/C=C/C(C)=C/[C@@H](C)C(=O)[C@@H](C)[C@H](O)[C@@H](C)CC)/C=C/[C@H]1CC=CC(=O)O1 | < 0.0012 | 1.91 µM and 11 µM | 0.166 | 2.81 µM and 15.1 µM | 2.11 µM and 14 µM | < 0.0012 | 1.91 µM and 14.3 µM | 0.00667 | 1.45 µM and 11.5 µM |  | < 0.0012 | < 0.0012
COc1ccc(CC[N+]2(C)COc3cc4oc(=O)cc(C)c4cc3C2)cc1OC (configuration not stated) | > 100 | > 100 µM | > 100 | > 100 µM | > 100 µM | > 100 | > 100 µM | > 100 | > 100 µM | > 100 | > 100 | 
